Laboratory results as given in patent US9765116B2, “Inhibitors of the Eph-A receptor and uses thereof” (Carmel Haifa University Economic Corporation Ltd., priority 2013, dated 2017).

Legend:
rats = settings: subcutaneous, single dose 20 μl of 10 μg/μl, 1 hour after fear conditioning, relative to saline
Protocol: A fear conditioning in vivo model was performed as in example 3A, however, no cannula was introduced into the rats. […] A fear memory test was performed 24 hours after the injection.

EphA4 [1] = biological target: T1, EphA4 (Rattus norvegicus, UniProt D3ZZK3); experiment: Pull down experiment with pep-ephrinA4 (FIG. 4B), EphA4; assay type: binding; settings: vs pep-control and agarose beads alone
T1 sequence (D3ZZK3 20-986): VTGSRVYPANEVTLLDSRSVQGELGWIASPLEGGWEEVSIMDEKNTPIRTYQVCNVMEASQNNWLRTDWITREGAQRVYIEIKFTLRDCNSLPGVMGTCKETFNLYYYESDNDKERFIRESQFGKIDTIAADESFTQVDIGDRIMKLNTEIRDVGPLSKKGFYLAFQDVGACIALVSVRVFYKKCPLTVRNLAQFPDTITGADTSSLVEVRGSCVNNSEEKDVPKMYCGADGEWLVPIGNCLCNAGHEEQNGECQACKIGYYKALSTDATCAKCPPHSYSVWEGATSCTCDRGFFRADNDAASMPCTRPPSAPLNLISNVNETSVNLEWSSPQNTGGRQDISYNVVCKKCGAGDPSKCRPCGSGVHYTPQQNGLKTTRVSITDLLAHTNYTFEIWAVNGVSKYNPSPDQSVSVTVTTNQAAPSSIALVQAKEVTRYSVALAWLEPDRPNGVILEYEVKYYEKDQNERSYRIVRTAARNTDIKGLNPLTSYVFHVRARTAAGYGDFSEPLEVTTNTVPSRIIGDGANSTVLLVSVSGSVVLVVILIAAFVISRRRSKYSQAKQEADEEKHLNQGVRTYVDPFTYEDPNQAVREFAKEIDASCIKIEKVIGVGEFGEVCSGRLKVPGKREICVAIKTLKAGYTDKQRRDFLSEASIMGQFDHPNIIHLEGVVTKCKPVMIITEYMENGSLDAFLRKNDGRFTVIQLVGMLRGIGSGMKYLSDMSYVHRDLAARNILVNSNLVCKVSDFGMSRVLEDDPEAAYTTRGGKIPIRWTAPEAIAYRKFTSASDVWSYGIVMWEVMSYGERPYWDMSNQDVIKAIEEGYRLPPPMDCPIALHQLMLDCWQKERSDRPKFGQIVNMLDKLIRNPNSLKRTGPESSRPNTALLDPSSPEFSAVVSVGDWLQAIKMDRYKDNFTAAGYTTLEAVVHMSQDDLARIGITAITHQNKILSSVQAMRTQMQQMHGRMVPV

[2] = biological target: elongation factor 2 protein (eEF2) (Rattus norvegicus, UniProt P05197); experiment: Pull down experiment with pep-ephrinA4, eEF2 control protein; assay type: binding
EphB2 receptor = settings: control protein
EphA4 [3] = biological target: T1, EphA4; experiment: ephrinA4-induced EphA4 tyrosine phosphorylation in brain slices containing the amygdala (immunoprecipitation, Western blot); assay type: cell-based; parameters: brain slices that contain the amygdala were divide to 3 groups; from tissue; host or cells: brain slices containing the amygdala; settings: brain slices in Ringer's solution stimulated with ephrinA4-Fc for 20 minutes, compared to Ringer's solution control
Protocol: Further, brain slices that contain the amygdala were divide to 3 groups: 1) placed in Ringer's solution, 2) placed in Ringer's solution and stimulated with ephrinA4-Fc for 20 minutes or 3) placed in Ringer's solution with pep-ephrinA4 for 20 minutes followed by stimulation with ephrinA4-Fc for 20 minutes (n=3 each). Protein extracts from the slices were immunoprecipitated with anti-EphA4 antibody and subjected to Western blot with anti-EphA4 or anti-phosphotyrosine antibodies.

Protocol for male Sprague Dawley rats: Subsequently, the neutral stimulus is administered to the groups of animals, and the animals' responses are analyzed. A test group of animals is administered a test agent which may inhibit the long term association in the memory of the animals between the neutral stimulus and the aversive event. If at a point in time about 24 hours after training the animals in the test group respond to the stimulus to a lesser degree than the animals in the control group without having other significant side effects, the test agent is determined to inhibit formation of long term memories. […] Short term memory formation was also tested in the current model by testing responses to stimulus 60 minutes after training.
In the current model, neutral stimulus provided to the animals was a tone and the aversive event was a mild footshock provided to the animals.
Long-term memory formation is believed to involve modifications in neural transmission and/or synaptic connections in neural networks in the area of the brain known as the lateral amygdala (LA.) In the current model, Peptide 1 was used a test agent and was administered directly to the LA.
In the model, male Sprague Dawley rats (each weighing about 250-300 grams), were used in the study (animals were obtained from Harlan Laboratories). In order to administer test agents to the LA of the rats, surgery was performed in which cannulas were inserted. To perform the surgery, rats were anesthetized with Xylazine 2% (15 milligrams per kilogram [mg/kg]) and Ketamine (120 mg/kg). Calmagine (Vetoquinol) (0.01 milliliters) was injected for analgesia before surgery. Guide stainless-steel cannulas (23 gauge) were implanted bilaterally 1.5 millimeters (mm) above the LA. The animals recovered for 5-7 days before behavior training.
Following surgery, rats were housed separately at 22±2° C. in a 12 hour light/dark cycle, with free access to food and water.
Rats were habituated to the training chamber and to the injection machine for 2 days for 30 min each day. On the next day the animals were subjected to the fear conditioning protocol. […]

| EphA4 phosphorylation after stimulation (EphA4 [3]) | Substance | freezing in fear memory test 24 hours after the injection (rats) | interaction with EphA4 (pull down) (EphA4 [1]) | interaction with elongation factor 2 protein (eEF2) (pull down) [2] | freezing 24 hours after training (long term fear memory) (male Sprague Dawley rats; 0.5 μl of 10 μg/μl per amygdala into LA 30 minutes before training, vs saline, peptide 2 and misplaced peptide 1) | rate of fear reduction over the trials (male Sprague Dawley rats; LA microinjection, compared to controls) | freezing 1 hour after training (formation of short term memory) (male Sprague Dawley rats; LA microinjection, no main effect for groups (p>0.4)) | interaction with EphB2 receptor (pull down) (EphB2 receptor) |
| --- | --- | --- | --- | --- | --- | --- | --- | --- |
| – | Ac-RRQRYTPFPLGFE-Lys(Biotin)-NH2-0H [peptide 1] | significantly reducing freezing | interacts | did not interact | froze significantly less | did not alter | does not inhibit | did not interact |
| – | Ac-RRWSGYEACTAEG-Lys(Biotin)-NH2-0H [peptide 2, reference compound] | – | not | – | – | – | – | – |
| significant increase | ephrinA4: ephrinA4-Fc used to stimulate brain slices for 20 minutes (RRQRYTPFPLGFEK) | – | – | – | – | – | – | – |
